Laboratory results taken from patent publication US10723699B2 (Hyundai Pharm Co., Ltd., priority 2015, dated 2020).

Experiments:
Assay type in all cases: in vitro ADME
CYP1A2 = biological target: T1, CYP1A2 (Homo sapiens, UniProt P05177); assay: CYP inhibition assay (BD GENTEST kit); settings: 10 μM
T1 construct: purchased BD GENTEST 459100
T1 sequence (P05177 1-516): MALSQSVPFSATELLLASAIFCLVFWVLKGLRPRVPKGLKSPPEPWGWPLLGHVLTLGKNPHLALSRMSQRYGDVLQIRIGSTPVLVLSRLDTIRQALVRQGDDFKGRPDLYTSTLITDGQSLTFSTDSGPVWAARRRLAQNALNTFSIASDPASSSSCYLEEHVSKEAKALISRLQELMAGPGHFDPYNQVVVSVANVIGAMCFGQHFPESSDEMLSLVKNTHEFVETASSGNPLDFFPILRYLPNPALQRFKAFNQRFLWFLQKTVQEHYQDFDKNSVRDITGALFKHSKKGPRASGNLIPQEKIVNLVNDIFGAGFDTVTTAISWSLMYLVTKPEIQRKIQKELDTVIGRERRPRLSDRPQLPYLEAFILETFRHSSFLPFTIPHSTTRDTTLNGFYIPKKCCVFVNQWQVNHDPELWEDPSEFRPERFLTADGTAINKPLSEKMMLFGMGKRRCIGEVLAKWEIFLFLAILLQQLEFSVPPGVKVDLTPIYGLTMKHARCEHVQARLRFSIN
Text: (§1) CYP enzymes play a major role in the metabolism of drugs. Depending on the inhibition activity of the CYP enzymes, the dose of the drugs and toxicity due to the co-administration of other drugs can be predicted. Therefore, we have measured the inhibitory activity for CYP3A4, CYP2C9, CYP1A2, CYP2D6 and CYP2C19 enzymes present in the body using the compounds of the present invention. Invitrogen P2862 kit was used for CYP2D6 inhibition assay, and BD GENTEST (459100, 459300, 459400, 459500) kits were used for CYP1A2, CYP2C9, CYP2C19 and CYP3A4 inhibition assay. In case of Invitrogen kit, the test materials were diluted in distilled water into 2.5× of the final test concentration.
(§2) In case of BD GENTEST kit, the test materials were diluted in acetonitrile into 50× of the final test concentration. NADPH-cofactor mixture containing cofactor, G6PDH and control protein was prepared in distilled water as per manufacturer's instruction. 4 μl of 50× test materials and 96 μl of NADPH-cofactor mixture were mixed in U-bottom 96-well plate, and the resulting mixture were pre-incubated at 37° C. for 10 minutes. Predetermined concentrations of enzyme/substrate mixture were prepared in distilled water using buffer (0.5M potassium phosphate, pH 7.4) and each of CYP450 enzyme/substrate mixture provided in the kit for the types of CYP450. To the pre-incubated plate, 100 μl of enzyme/substrate mixture was added, and then incubated at 37° C. for 15 minutes (CYP1A2), 30 minutes (CYP3A4 and CYP2C19) or 1.5 hours (CYP2C9). After completion of the reaction, the reactants were transferred to the white plates, and fluorescent values were measured using a micro-plate reader (Excitation and absorption wavelengths of CYP1A2 and CYP2C19 were 410 nm and 460 nm, respectively; and excitation and absorption wavelengths of CYP2C9 and CYP3A4 were 409 nm and 530 nm, respectively).
(§3) The measured values were converted into the inhibition percent of the test materials as compared to the value of the untreated control, and the results were summarized in Table 5.

CYP3A4 = biological target: T2, CYP3A4 (Homo sapiens, UniProt P08684); assay: CYP inhibition assay (BD GENTEST kit); settings: 10 μM
T2 construct: purchased BD GENTEST 459500
Text: as §1, §2, §3

CYP2C19 = biological target: T3, CYP2C19 (Homo sapiens, UniProt P33261); assay: CYP inhibition assay (BD GENTEST kit); settings: 10 μM
T3 construct: purchased BD GENTEST 459400
Text: as §1, §2, §3

CYP2C9 = biological target: T4, CYP2C9 (Homo sapiens, UniProt P11712); assay: CYP inhibition assay (BD GENTEST kit); settings: 10 μM
T4 construct: purchased BD GENTEST 459300
Text: as §1, §2, §3

CYP2D6 = biological target: T5, CYP2D6 (Homo sapiens, UniProt P10635); assay: CYP inhibition assay (Invitrogen P2862 kit); settings: 10 µM
T5 construct: purchased Invitrogen P2862
Text: as §1
P450 BACULOSOMES® reagent and regeneration device (100×) provided by the Invitrogen kit were diluted in the Vivid® reaction buffer (2×) into the appropriate concentration for the type of CYP450. After mixing 80 μl of the 2.5× test material and 100 μl of the mixture of the diluted P450 BACULOSOMES® reagent in U-bottom 96-well plate, the resulting mixture was pre-incubated for 20 minutes. Vivid® CYP450 substrate and NADP+ (100×) were diluted in the Vivid® CYP450 reaction buffer (2×) into the appropriate concentration for the types of CYP450 and the substrates. After completion of the pre-incubation, 20/l of the substrate-NADP (nicotinamide adenine dinucleotide phosphate) mixture was added, and then incubated for 1 hour. After completion of the reaction, the reactants were transferred to the white plates, and fluorescence values were measured using a micro-plate reader (Excitation and absorption wavelengths of CYP2D6 were 400 nm and 502 nm, respectively).
as §3

T4 sequence (P11712 whole entry): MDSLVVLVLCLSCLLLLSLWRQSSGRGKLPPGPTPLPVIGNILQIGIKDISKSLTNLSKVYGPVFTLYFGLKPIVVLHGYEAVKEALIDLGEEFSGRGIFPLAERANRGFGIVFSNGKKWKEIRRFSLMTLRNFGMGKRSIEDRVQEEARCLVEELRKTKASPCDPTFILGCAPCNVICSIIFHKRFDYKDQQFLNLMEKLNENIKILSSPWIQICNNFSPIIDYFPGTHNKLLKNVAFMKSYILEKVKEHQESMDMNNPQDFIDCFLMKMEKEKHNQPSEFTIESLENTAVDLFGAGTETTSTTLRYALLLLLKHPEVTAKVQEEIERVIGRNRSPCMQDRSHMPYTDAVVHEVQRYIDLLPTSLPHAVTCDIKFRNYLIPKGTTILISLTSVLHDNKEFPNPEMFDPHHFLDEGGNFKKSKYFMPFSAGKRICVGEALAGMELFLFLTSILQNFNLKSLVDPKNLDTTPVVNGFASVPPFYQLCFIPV
T3 sequence (P33261 whole entry): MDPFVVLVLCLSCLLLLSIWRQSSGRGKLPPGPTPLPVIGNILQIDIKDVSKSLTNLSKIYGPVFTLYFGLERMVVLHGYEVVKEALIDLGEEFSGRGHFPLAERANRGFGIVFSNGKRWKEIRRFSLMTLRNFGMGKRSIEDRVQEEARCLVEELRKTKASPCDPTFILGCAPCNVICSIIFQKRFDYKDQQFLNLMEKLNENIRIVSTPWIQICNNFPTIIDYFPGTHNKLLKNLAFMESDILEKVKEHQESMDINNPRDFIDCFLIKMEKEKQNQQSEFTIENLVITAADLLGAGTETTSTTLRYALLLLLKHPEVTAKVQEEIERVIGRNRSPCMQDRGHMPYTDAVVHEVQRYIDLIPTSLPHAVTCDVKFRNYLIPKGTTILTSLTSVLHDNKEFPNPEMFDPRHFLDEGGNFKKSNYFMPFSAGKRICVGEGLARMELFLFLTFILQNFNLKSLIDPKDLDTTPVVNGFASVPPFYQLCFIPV
T5 sequence (P10635 whole entry): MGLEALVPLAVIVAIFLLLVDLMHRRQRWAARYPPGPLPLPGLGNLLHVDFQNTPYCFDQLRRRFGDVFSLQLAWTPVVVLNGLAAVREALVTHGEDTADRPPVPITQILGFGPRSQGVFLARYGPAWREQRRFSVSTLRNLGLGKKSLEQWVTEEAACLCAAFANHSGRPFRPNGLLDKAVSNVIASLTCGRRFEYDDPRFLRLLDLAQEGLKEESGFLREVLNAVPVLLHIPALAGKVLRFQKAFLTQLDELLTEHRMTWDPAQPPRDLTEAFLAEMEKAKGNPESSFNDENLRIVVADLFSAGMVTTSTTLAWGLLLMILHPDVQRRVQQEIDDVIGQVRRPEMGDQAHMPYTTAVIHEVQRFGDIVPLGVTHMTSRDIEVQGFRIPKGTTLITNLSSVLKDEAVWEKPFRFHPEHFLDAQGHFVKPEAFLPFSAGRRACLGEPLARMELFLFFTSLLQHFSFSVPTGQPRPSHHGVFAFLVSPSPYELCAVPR
T2 sequence (P08684 whole entry): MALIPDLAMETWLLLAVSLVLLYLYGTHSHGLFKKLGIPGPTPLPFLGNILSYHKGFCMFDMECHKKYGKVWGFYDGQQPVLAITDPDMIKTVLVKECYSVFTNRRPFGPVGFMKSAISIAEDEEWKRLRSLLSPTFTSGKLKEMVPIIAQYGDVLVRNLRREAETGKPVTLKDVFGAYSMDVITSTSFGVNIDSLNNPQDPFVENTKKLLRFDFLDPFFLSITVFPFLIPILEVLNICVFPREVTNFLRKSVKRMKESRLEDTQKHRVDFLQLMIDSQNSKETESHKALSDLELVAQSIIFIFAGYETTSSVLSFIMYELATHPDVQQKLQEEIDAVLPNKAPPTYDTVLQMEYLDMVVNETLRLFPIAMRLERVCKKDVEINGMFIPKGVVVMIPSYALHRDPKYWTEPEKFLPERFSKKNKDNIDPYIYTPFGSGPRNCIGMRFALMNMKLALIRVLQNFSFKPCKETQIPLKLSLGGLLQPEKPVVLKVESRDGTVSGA

- CYP inhibition (% at 10 μM) 1A2 (CYP1A2): 0%
- CYP inhibition (% at 10 μM) 3A4 (CYP3A4): 36.36%
- CYP inhibition (% at 10 μM) 2C19 (CYP2C19): 54.06%
- CYP inhibition (% at 10 μM) 2C9 (CYP2C9): 47.32%
- CYP inhibition (% at 10 μM) 2D6 (CYP2D6): 2.49%
SMILES: CCc1cnc(N2CCC(COc3ccc(C4=CCC(C(=O)N5CCC[C@@H]5CO)CC4)cc3)CC2)nc1 (single isomer, unassigned; (-)) [Example 291]
